Assay results: patent US11660279B2, “Therapeutic agents for treating restless leg syndrome” (INTRABIO LTD, priority 2018, dated 2023)

Key:
[1] = system: patients with restless leg syndrome (RLS); test: International Restless Legs Syndrome Rating Scale score (IRLS) in patient case studies; type: in vivo, human; design: key: IRLS score, 0 (no symptoms) to 40; >30 very severe
Excerpt: RLS severity varies and can be measured using one or more of several scales. A widely reported rating scale known as the International Restless Legs Syndrome Study Group Rating Scale (“IRLS”) was developed by the International Restless Legs Syndrome Study Group (“IRLSSG”) (Walters et al., Validation of the 15 International Restless Legs Syndrome Study Group rating scale for restless legs syndrome. Sleep medicine. 2003 Apr 01; 4(2)1 21-32). The IRLS is a 10-item scale with scores ranging from 0 (no symptoms) to 40. Scores>30 are considered very severe, severe (Score 21-30), moderate (scores 11-20) and […], mild. Use of the scale is common for clinical assessment, research and therapeutic trials with RLS.
Serum creatine kinase activity was only mildly elevated at up to 400 IU/L. The patient was evaluated using the RLS diagnostic index (RLS-DI) (see Walters et al., Sleep Med 2003; 4(2):121-132;). The patient's International Restless Legs Syndrome Rating Scale score (IRLS) was 36, and thus a severe RLS was diagnosed. The patient was started on therapy with acetyl-DL-leucine at a dose of 3 g per day for the first week, followed by a dose of 5 g per day for the second week onwards. Within 14 days on acetyl-DL-leucine, the IRLS dropped to 26, and after another 5 weeks, the IRLS declined to 9. […] Re-introduction of the treatment re-declined the score to 8 after 2 weeks. Continuation of treatment over more than 22 weeks stabilized the IRLS score at 8.
(§1) The patient in this case study was a person showing proximal weakness of the lower limb. […] Upon consultation, they reported no sensory symptoms but complained of a restless leg syndrome at night and during resting periods of the day, occurring over the course of the last eight years. […] Serum creatine kinase activity was mildly elevated at 300 IU/L. Iron measurements and all additional lab investigations were normal. The patient was evaluated using the RLS-DI and the patient's IRLS was 32, and thus a moderate to severe RLS was diagnosed. The patient was started on therapy with acetyl-DL-leucine at a dose of 3 g per day for the first week, followed by a dose of 5 g per day for the second week onwards. Within 14 days on acetyl-DL-leucine, the IRLS dropped to 22, and after another 5 weeks, the IRLS declined to 7. Continuation of treatment over more than 28 weeks stabilized the IRLS score at 8.
(§2) The patient in this case study was a person showing mild proximal weakness of the upper and lower limbs slowly progressive. The patient had been diagnosed (genetically confirmed) with McArdle myopathy about 16 years ago. Upon consultation, they reported no sensory symptoms but complained about a severe fatigue and reduced stamina. The patient further reported a restless leg syndrome at night and during resting periods of the day, occurring over the course of the last 12 years. […] Serum creatine kinase activity was mildly elevated at 200 IU/L; however, the patient had 5 episodes of rhabdomyolysis during the past 20 years. Repeated iron measurements and all additional lab investigations were normal. The patient was evaluated using the RLS-DI and the patient's IRLS was 34, and thus a severe RLS was diagnosed. The patient was started on therapy with acetyl-DL-leucine at a dose of 3 g per day for the first week, followed by a dose of 5 g per day for the second week onwards. Within 21 days on acetyl-DL-leucine, the IRLS dropped to 20, and after another 10 weeks, the IRLS declined to 10. Continuation of treatment over more than 30 weeks stabilized the IRLS score at 10. In addition, the patient's fatigue declined (Fatigue Severit Scale: 9 (minimum) to 63 (maximum)) from 53 to 28.
The patient in this case study was a person showing symptoms of RLS and with RLS of unknown etiology. […]

[2] = system: patient with RLS and McArdle myopathy; test: Fatigue Severity Scale in patient case study; type: in vivo, human; conditions: Patient 3; scale 9 (minimum) to 63 (maximum); declined from 53
Excerpt: as §2

[3] = system: patients with cerebellar ataxia / Niemann-Pick Type C; conditions: cited from earlier work
[4] = system: patients with restless leg syndrome (RLS); test: Symptom relief of RLS by pre-treatment (patient history); type: in vivo, human
Protocol: as §1, §2
The patient in this case study was a person showing symptoms of RLS and with RLS of unknown etiology. Upon consultation, they reported no sensory symptoms but complained of a restless leg syndrome at night and during resting periods of the day, occurring over the course of the at least 15 years. […] Iron measurements and all additional lab investigations were normal. The patient was evaluated using the RLS-DI and the patient's IRLS was 32, and thus a moderate to severe RLS was diagnosed. The patient was started on therapy with acetyl-DL-leucine at a dose of 3 g per day for the first week, followed by a dose of 5 g per day for the second week onwards. Within 14 days on acetyl-DL-leucine, the IRLS dropped to 8, and after another 2 weeks, the IRLS declined to 6. Continuation of treatment over more than 4 weeks stabilized the IRLS score at 6.

[5] = system: rat model of an acute unilateral labyrinthectomy; conditions: Zwergal 2016, Gunther 2015; cited from earlier work
[6] = Patient 2, before acetyl-DL-leucine
[7] = Patient 3, before acetyl-DL-leucine
[8] = Patient 4, before acetyl-DL-leucine

## CC(=O)NC(CC(C)C)C(=O)O (racemic) [acetyl-DL-leucine]
[1]; Patient 1, baseline 36, after another 5 weeks on 5 g per day
  IRLS: 9
[1]; Patient 1, baseline IRLS 36, 3 g per day first week then 5 g per day, within 14 days
  IRLS: 26
[1]; Patient 1, after interruption of 4 weeks of the treatment after week 12
  IRLS: 28
[1]; Patient 1, continuation of treatment over more than 22 weeks
  IRLS: 8
[1]; Patient 1, re-introduction of the treatment, after 2 weeks
  IRLS: 8
[1]; Patient 2, baseline 32, after another 5 weeks
  IRLS: 7
[1]; Patient 2, baseline IRLS 32, 3 g per day first week then 5 g per day, within 14 days
  IRLS: 22
[1]; Patient 2, continuation of treatment over more than 28 weeks
  IRLS: 8
[1]; Patient 3, baseline 34, after another 10 weeks
  IRLS: 10
[1]; Patient 3, baseline IRLS 34, 3 g per day first week then 5 g per day, within 21 days
  IRLS: 20
[1]; Patient 3, continuation of treatment over more than 30 weeks
  IRLS: 10
[1]; Patient 4, baseline 32, after another 2 weeks
  IRLS: 6
[1]; Patient 4, baseline IRLS 32, 3 g per day first week then 5 g per day, within 14 days
  IRLS: 8
[1]; Patient 4, continuation of treatment over more than 4 weeks
  IRLS: 6
[2]
  Fatigue Severit Scale: 28
[3]; PET study in patients with ataxia, Becker-Bense et al. (2015)
  brain metabolism (PET): increased metabolism in the midbrain and lower brainstem in responders
[3]; another case series, Pelz et al. (2015)
  cerebellar ataxia benefit: did not find benefit
[3]; case series with cerebellar patients, Strupp et al. (2013)
  cerebellar ataxia symptoms: symptomatic improvement of cerebellar ataxia
[3]; one-month study, 12 patients with Niemann-Pick Type C, Bremova et al. (2015)
  ataxia symptoms: symptomatic improvement of ataxia was shown
[3]; quantitative gait analysis, patients with cerebellar ataxia, Schniepp et al. (2015)
  temporal gait variability: improved temporal gait variability

## N[C@@H](Cc1ccc(O)c(O)c1)C(=O)O [L-dopa]
[4]; [6]
  RLS symptom relief by pre-treatment: without sustained symptom relief
[4]; [7]
  RLS symptom relief by pre-treatment: without sustained symptom relief
[4]; [8]
  RLS symptom relief by pre-treatment: without sustained relief

## CC(=O)N[C@@H](CC(C)C)C(=O)O [N-acetyl-L-leucine]
[5]
  postural compensation: significant effect

## CC(C)C[C@H](CN)CC(=O)O [pregabaline]
[4]; [6]
  RLS symptom relief by pre-treatment: without sustained symptom relief
[4]; [7]
  RLS symptom relief by pre-treatment: without sustained symptom relief
[4]; [8]
  RLS symptom relief by pre-treatment: without sustained relief
